How the values were obtained:
Assay type in all cases: cell-based
[1] = target: Free fatty acid receptor 1 (Homo sapiens, UniProt O14842); experiment: Agonist activity at N-terminal FLAG tagged human FFAR1 transfected in African green monkey COS-7 cells assessed as accumulation of inositol phosphate incubated for 90 mins by TopCount NXT counter based analysis
[2] = target: T1, Free fatty acid receptor 4 (Homo sapiens, UniProt Q5NUL3); experiment: Agonist activity at N-terminal FLAG tagged human FFAR4 transfected in African green monkey COS-7 cells assessed as accumulation of inositol phosphate incubated for 90 mins by TopCount NXT counter based analysis
T1 sequence (Q5NUL3 whole entry): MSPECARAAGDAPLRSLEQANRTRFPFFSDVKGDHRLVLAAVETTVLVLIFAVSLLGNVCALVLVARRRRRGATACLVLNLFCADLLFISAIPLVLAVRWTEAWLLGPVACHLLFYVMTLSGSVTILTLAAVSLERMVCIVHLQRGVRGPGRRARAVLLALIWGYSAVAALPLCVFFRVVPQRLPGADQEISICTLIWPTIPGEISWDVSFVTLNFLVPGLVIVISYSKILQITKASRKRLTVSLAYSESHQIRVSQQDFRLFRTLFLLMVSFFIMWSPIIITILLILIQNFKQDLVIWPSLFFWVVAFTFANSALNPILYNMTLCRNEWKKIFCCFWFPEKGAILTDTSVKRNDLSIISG

[3] = target: T2, Free fatty acid receptor 4 (Homo sapiens) (UniProt Q5NUL3); experiment: Agonist activity at N-terminal FLAG tagged human FFAR4 transfected in African green monkey COS-7 cells assessed as accumulation of inositol phosphate at 10 uM incubated for 90 mins by TopCount NXT counter based analysis relative to control
T2 sequence (whole entry): T1 sequence (Q5NUL3 whole entry)

Sequence of Free fatty acid receptor 1 (O14842 whole entry): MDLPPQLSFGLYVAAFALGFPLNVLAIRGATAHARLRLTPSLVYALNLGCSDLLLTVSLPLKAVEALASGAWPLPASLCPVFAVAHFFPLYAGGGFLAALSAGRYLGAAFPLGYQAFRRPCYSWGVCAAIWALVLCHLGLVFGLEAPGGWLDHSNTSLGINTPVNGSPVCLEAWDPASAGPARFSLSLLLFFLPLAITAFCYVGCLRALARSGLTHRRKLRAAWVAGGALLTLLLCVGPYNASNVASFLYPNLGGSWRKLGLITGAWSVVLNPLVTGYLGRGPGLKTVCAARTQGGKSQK

Cc1ccc(Nc2nc(N)nc(COc3cc(N4CCCC4=O)ccc3F)n2)cc1Cl
EC50 [1]: 33100 nM | EC50 [2]: 13800 nM | Emax [3]: 27%

COc1ccccc1CCNc1nc(N)nc(COc2cc(C)cc(N3CCCC3=O)c2)n1
EC50 [1]: 34 nM | EC50 [2]: 14 nM | Emax [3]: 23%

Cc1cc(OCc2nc(N)nc(NCCc3cccc(C#N)c3)n2)cc(N2CCCC2=O)c1
EC50 [1]: 831 nM | EC50 [2]: 552 nM | Emax [3]: 17%

Cc1cc(OCc2nc(N)nc(NCC3(c4cccc(Cl)c4)CC3)n2)cc(N2CCCC2=O)c1
EC50 [1]: 48 nM

Cc1cc(OCc2nc(N)nc(NCCc3cccc(C(F)(F)F)c3)n2)cc(N2CCCC2=O)c1
EC50 [1]: 12 nM | EC50 [2]: 10 nM | Emax [3]: 35%

Cc1cc(OCc2nc(N)nc(NCCc3cc(C)ccc3F)n2)cc(N2CCCC2=O)c1
EC50 [1]: 3 nM | EC50 [2]: 386 nM | Emax ([3]; filed as agonist): 40%

Cc1ccc(Nc2nc(N)nc(COc3cccc(N4CCCC4=O)c3C)n2)cc1Cl
EC50 [1]: 11100 nM | EC50 [2]: 14400 nM | Emax ([3]; filed as agonist): 46%

Cc1ccc(Nc2nc(N)nc(COc3ccc(Cl)c(N4CCCC4=O)c3)n2)cc1Cl
EC50 [1]: 2450 nM | EC50 [2]: 3030 nM | Emax ([3]; filed as agonist): 42%

Cc1cc(OCc2nc(N)nc(NCCc3ccccc3C)n2)cc(N2CCCC2=O)c1
EC50 [1]: 11 nM | EC50 [2]: 17 nM | Emax [3]: 35%

Cc1cc(OCc2nc(N)nc(NCCc3c(C)cccc3C)n2)cc(N2CCCC2=O)c1
EC50 [1]: 25 nM | EC50 [2]: 72 nM | Emax ([3]; filed as agonist): 44%

Cc1ccc(Nc2nc(N)nc(COc3cccc(N4CCCCC4=O)c3)n2)cc1Cl
EC50 [1]: 22400 nM | EC50 [2]: 16600 nM | Emax ([3]; filed as agonist): 66%

Cc1ccc(Nc2nc(N)nc(COc3cc(N4CCCC4=O)ccc3C)n2)cc1Cl
EC50 [1]: 7450 nM | EC50 [2]: 18200 nM | Emax ([3]; filed as agonist): 43%

Cc1cc(OCc2nc(N)nc(NCCc3ccc(Cl)cc3)n2)cc(N2CCCC2=O)c1
EC50 [1]: 193 nM

Cc1cc(=O)oc2cc(OCc3nc(N)nc(Nc4ccc5ccccc5c4)n3)ccc12
EC50 [1]: 700 nM

Cc1cc(=O)oc2cc(OCc3nc(N)nc(Nc4ccc5c(c4)COC5)n3)ccc12
EC50 [1]: 1330 nM

Cc1cc(OCc2nc(N)nc(NCCc3ccc(Cl)c(Cl)c3)n2)cc(N2CCCC2=O)c1
EC50 [1]: 16 nM | EC50 [2]: 55 nM | Emax [3]: 23%

Cc1ccc(Nc2nc(N)nc(COc3cc(N4CCCC4=O)cc(C(C)(C)C)c3)n2)cc1Cl
EC50 [2]: 640 nM

Cc1ccc(Nc2nc(N)nc(COc3cc(Cl)cc(N4CCCC4=O)c3)n2)cc1Cl
EC50 [1]: 160 nM | EC50 [2]: 150 nM | Emax ([3]; filed as agonist): 43%

Cc1cc(OCc2nc(N)nc(NCCc3ccc(C)cc3C)n2)cc(N2CCCC2=O)c1
EC50 [1]: 71 nM | EC50 [2]: 93 nM | Emax [3]: 37%

COc1ccc(Cl)cc1CCNc1nc(N)nc(COc2cc(C)cc(N3CCCC3=O)c2)n1
EC50 [1]: 54 nM | EC50 [2]: 53 nM | Emax [3]: 29%

CCc1cc(=O)oc2cc(OCc3nc(N)nc(Nc4ccc(C)cc4)n3)ccc12
EC50 [1]: 2640 nM | EC50 [2]: 1320 nM | Emax [3]: 37%

Cc1ccc(Nc2nc(N)nc(COc3cc(N4CCCC4=O)ccc3C(F)(F)F)n2)cc1Cl
EC50 [1]: 20100 nM | EC50 [2]: 11900 nM | Emax ([3]; filed as agonist): 41%

COc1ccc(F)cc1CCNc1nc(N)nc(COc2cc(C)cc(N3CCCC3=O)c2)n1
EC50 [1]: 469 nM | EC50 [2]: 134 nM | Emax [3]: 30%

Cc1cc(OCc2nc(N)nc(NCCc3ccccc3OC(F)F)n2)cc(N2CCCC2=O)c1
EC50 [1]: 108 nM | EC50 [2]: 178 nM | Emax [3]: 30%

Cc1cc(OCc2nc(N)nc(NCCc3ccccc3OC(F)(F)F)n2)cc(N2CCCC2=O)c1
EC50 [1]: 20 nM | EC50 [2]: 37 nM | Emax [3]: 29%

Cc1cc(=O)oc2cc(OCc3nc(N)nc(Nc4ccc(C5CC5)cc4)n3)ccc12
EC50 [1]: 700 nM

Cc1cc(OCc2nc(N)nc(NCCc3cccc(Cl)c3Cl)n2)cc(N2CCCC2=O)c1
EC50 [1]: 3 nM | EC50 [2]: 9 nM | Emax [3]: 31%

Cc1cc(OCc2nc(N)nc(NCCc3cc(Cl)cc(Cl)c3)n2)cc(N2CCCC2=O)c1
EC50 [1]: 4 nM | EC50 [2]: 7 nM | Emax ([3]; filed as agonist): 49%

Cc1cc(OCc2nc(N)nc(NCCc3ccccc3C(F)(F)F)n2)cc(N2CCCC2=O)c1
EC50 [1]: 12 nM | EC50 [2]: 10 nM | Emax [3]: 38%

Cc1cc(OCc2nc(N)nc(NCCc3cccc(OC(F)F)c3)n2)cc(N2CCCC2=O)c1
EC50 [1]: 5 nM | EC50 [2]: 10 nM | Emax [3]: 28%

Cc1cc(OCc2nc(N)nc(NCCc3cccc(S(F)(F)(F)(F)F)c3)n2)cc(N2CCCC2=O)c1
EC50 [1]: 32 nM | Emax ([3]; filed as agonist): 95%

Cc1ccc(Nc2nc(N)nc(COc3ccc4c(C)cc(=O)oc4c3)n2)cc1C
EC50 [1]: 210 nM

Cc1cc(=O)oc2cc(OCc3nc(N)nc(NCc4ccc(F)cc4)n3)ccc12
EC50 [1]: 7820 nM

Cc1cccc(CCNc2nc(N)nc(COc3cc(C)cc(N4CCCC4=O)c3)n2)c1
EC50 [1]: 7 nM

Cc1cc(OCc2nc(N)nc(NCCc3cc(F)ccc3F)n2)cc(N2CCCC2=O)c1
EC50 [1]: 16 nM | EC50 [2]: 5 nM | Emax [3]: 36%

Cc1ccc(Nc2nc(N)nc(COc3cccc(N4CCCC4=O)c3F)n2)cc1Cl
EC50 [1]: 14100 nM

CCCc1cc(=O)oc2cc(OCc3nc(N)nc(Nc4ccc(C)cc4)n3)ccc12
EC50 [1]: 2900 nM

Cc1ccc(Nc2nc(N)nc(COc3ccc4ccc(=O)oc4c3)n2)cc1
EC50 [1]: 1280 nM | EC50 [2]: 4390 nM | Emax ([3]; filed as agonist): 49%

Cc1cc(=O)oc2cc(OCc3nc(N)nc(Nc4ccc(C(C)C)cc4)n3)ccc12
EC50 [1]: 460 nM | EC50 [2]: 1200 nM | Emax ([3]; filed as agonist): 75%

Cc1cc(OCc2nc(N)nc(NCCc3ccccc3Cl)n2)cc(N2CCCC2=O)c1
EC50 [1]: 6 nM | EC50 [2]: 3 nM | Emax [3]: 33%

Cc1cc(OCc2nc(N)nc(NCCc3ccccc3)n2)cc(N2CCCC2=O)c1
EC50 [1]: 25 nM | EC50 [2]: 33 nM | Emax [3]: 38%

COc1ccc(OCc2nc(N)nc(Nc3ccc(C)c(Cl)c3)n2)cc1N1CCCC1=O
EC50 [1]: 20200 nM | EC50 [2]: 31400 nM | Emax ([3]; filed as agonist): 53%

Cc1ccc(Nc2nc(N)nc(COc3ccc4c5c(c(=O)oc4c3)CCC5)n2)cc1
EC50 [1]: 2220 nM

Cc1cc(OCc2nc(N)nc(NCCc3ccc(C)c(Cl)c3)n2)cc(N2CCCC2=O)c1
EC50 [1]: 7 nM | EC50 [2]: 8 nM | Emax [3]: 32%

Cc1cc(OCc2nc(N)nc(NCCc3ccccc3F)n2)cc(N2CCCC2=O)c1
EC50 [1]: 11 nM

Cc1cc(Nc2nc(N)nc(COc3ccc4c(C)cc(=O)oc4c3)n2)ccc1Cl
EC50 [1]: 240 nM | EC50 [2]: 600 nM | Emax ([3]; filed as agonist): 48%

Cc1ccc(Nc2nc(N)nc(COc3cc(N4CCCC4=O)cc(C(F)(F)F)c3)n2)cc1Cl
EC50 [1]: 3190 nM

CCc1ccc(Nc2nc(N)nc(COc3ccc4c(C)cc(=O)oc4c3)n2)cc1Cl
EC50 [1]: 160 nM | EC50 [2]: 560 nM | Emax ([3]; filed as agonist): 48%

Cc1cc(=O)oc2cc(OCc3nc(N)nc(Nc4ccc(Cl)cc4)n3)ccc12
EC50 [1]: 32500 nM

Cc1cc(=O)oc2cc(OCc3nc(N)nc(Nc4ccc(Cl)c(Cl)c4)n3)ccc12
EC50 [1]: 780 nM | EC50 [2]: 360 nM

Cc1ccc(Nc2nc(N)nc(COc3cc(OC(F)(F)F)cc(N4CCCC4=O)c3)n2)cc1Cl
EC50 [2]: 2190 nM | Emax [3]: 38%

Cc1ccc(Nc2nc(N)nc(COc3cccc(N4CCCS4(=O)=O)c3)n2)cc1Cl
EC50 [1]: 9700 nM

Cc1cc(=O)oc2cc(OCc3nc(N)nc(Nc4cccc(Cl)c4)n3)ccc12
EC50 [1]: 1110 nM

Cc1cc(OCc2nc(N)nc(NCC(c3c(F)cccc3F)N(C)C)n2)cc(N2CCCC2=O)c1 (centres undefined)
EC50 [1]: 7430 nM

Cc1cc(=O)oc2cc(OCc3nc(N)nc(Nc4ccc(F)cc4)n3)ccc12
EC50 [1]: 18300 nM

Reference: ChEMBL document CHEMBL5236638, “Optimization of First-in-Class Dual-Acting FFAR1/FFAR4 Allosteric Modulators with Novel Mode of Action” (ACS Med Chem Lett, 2022)
